Experimental findings from ChEMBL document CHEMBL1201862, “PubChem BioAssay data set” (2004) are described below.

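48-hour exposure; five concentrations; linearly interpolated endpoints. GI50 is the concentration that inhibits growth by half.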 Active and inactive are the calls of the source. Rule as the data show it: active = GI50 up to about 1.1 µM and inactive = higher.

Common to all, as to experiment: growth of human tumour cells (NCI), 48 h
Assay [1] deals with NCI-H522.
Assay [2] relates to TK-10.
The test system of assay [3] is RPMI-8226.
Assay [4] concerns KM12.
Assay [5] relates to 786-0.
In assay [6] the test system is NCI-H460.
Assay [7] relates to HCT-15.
Assay [8] deals with SNB-19.
Assay [9] concerns ACHN.
Assay [10] has as its system SK-MEL-28.
Assay [11] concerns UACC-257.
Assay [12] deals with OVCAR-8.
Assay [13] has as its system EKVX.
Assay [14] has as its system CAKI-1.
The subject of assay [15] is UACC-62.
The subject of assay [16] is RXF 393.

With `CCCCCCCCCC(=O)NC(Cc1ccc(O)cc1)C(=O)NCCCNCCCCNCCCNC(=O)[C@@H](N)CCCN=C(N)N` (some centres undefined), the GI50 in assay [1] was 28.8 µM (inactive); in [2] it was 46.9 µM (inactive); in [3] it was 64.9 µM (inactive); in assay [4] it was 20.9 µM (inactive); in [5], 61.7 µM (inactive); in [6] it was 15.5 µM (inactive). Moreover, the GI50 in assay [7] is 86.7 µM; in assay [8], 70.1 µM (inactive); in assay [9], 18.9 µM (inactive); in assay [10], 19.2 µM (inactive); in assay [11], 44.5 µM (inactive); in [12], 33.6 µM (inactive). In assay [13], the GI50 is 30.1 µM (inactive).

`CCC(=O)NCC1(c2c[nH]c3ccccc23)SCCS1`: the GI50 in assay [1], in assay [2], in assay [3], in assay [4], in [14] and in assay [5] was > 100 µM (inactive) each time. The GI50 in assay [6] is > 100 µM (inactive); in [7] it was over 100 µM; in assay [8] it was > 100 µM (inactive); in assay [15], 63.4 µM (inactive); in [9], 82 µM (inactive); in [10] it was > 100 µM (inactive). In addition, the GI50 in assay [11], in assay [12] and in assay [13] was > 100 µM (inactive) throughout.

Consider `Cc1cc(C)nc(NS(=O)(=O)c2ccc(Nc3c4ccccc4nc4c(C(=O)NCCN(C)C)ccc(Cl)c34)cc2)n1`, for which the GI50 in assay [1] is 1.24 µM (inactive); in [2], 5.07 µM (inactive); in assay [4], 1.7 µM (inactive); in assay [5], 3.73 µM (inactive); in [6] it was 0.39 µM (active); in [7], 2.78 µM. Also, the GI50 was 1.45 µM (inactive) in assay [8]; 1.74 µM (inactive) in assay [15]; 2.02 µM (inactive) in assay [9]; 5.4 µM (inactive) in [10]; 2.09 µM (inactive) in assay [16]; 0.681 µM (active) in [12]. Further, the GI50 in [13] was 4.4 µM (inactive).

With `COc1c(C)cc2c(c1O)C1C3[C@H]4SC[C@@]5(NCCC6=C5NC5C=CC=CC65)C(=O)OCC(c5c6c(c(C)c(OC(C)=O)c54)OCO6)N3[C@@H](O)C(C2)N1C` (some centres undefined), the GI50 in [2] was < 0.01 µM (active); in assay [3], < 0.01 µM (active); in [5], < 0.01 µM (active); in assay [6], < 0.01 µM (active); in [7], under 0.01 µM; in assay [8], < 0.01 µM (active). The GI50 was < 0.01 µM (active) in assay [15]; < 0.01 µM (active) in assay [9]; 0.0134 µM (active) in assay [10]; < 0.01 µM (active) in assay [16]; < 0.01 µM (active) in assay [11]; < 0.01 µM (active) in assay [12]. Further, the GI50 in assay [13] was 0.0297 µM (active).

Turning to `CCOC1=NC(=O)CC(c2ccccc2)S1` (centres undefined), the GI50 in [3] was > 100 µM (inactive); in assay [4], > 100 µM (inactive); in [14] it was > 100 µM (inactive); in assay [5], > 100 µM (inactive); in [6], > 100 µM (inactive); in assay [7], over 100 µM. In addition, the GI50 in [8] was > 100 µM (inactive); in assay [15], > 100 µM (inactive); in assay [9], > 100 µM (inactive); in assay [16] it was 36.4 µM (inactive); in assay [11] it was > 100 µM (inactive); in assay [12], > 100 µM (inactive). Moreover, in [13], the GI50 was > 100 µM (inactive).

Consider `COC(=O)c1cc(=O)nc2cc3cccccc3n12`, for which the GI50 in assay [1] is > 100 µM (inactive); in assay [2], > 100 µM (inactive); in [3], > 100 µM (inactive); in [4], > 100 µM (inactive); in assay [5], > 100 µM (inactive); in [6] it was 59 µM (inactive). Besides, the GI50 is over 100 µM in assay [7]; > 100 µM (inactive) in assay [8]; > 100 µM (inactive) in assay [15]; > 100 µM (inactive) in assay [9]; > 100 µM (inactive) in assay [10]; > 100 µM (inactive) in assay [16]. For the same compound, the GI50 in assay [11], in [12] and in assay [13] was > 100 µM (inactive) throughout.

On to `CC(=O)CCC1(c2ccccc2)OC(=O)C(C#N)=C1c1ccccc1` (centres undefined), for which the GI50 is 1.53 µM (inactive) in assay [1]; > 100 µM (inactive) in [2]; 39.8 µM (inactive) in [3]; > 100 µM (inactive) in assay [4]; > 100 µM (inactive) in assay [5]; > 100 µM (inactive) in assay [6]. For the same compound, the GI50 in [7] is over 100 µM; in assay [8], > 100 µM (inactive); in assay [15], > 100 µM (inactive); in assay [9], > 100 µM (inactive); in [10], > 100 µM (inactive); in assay [11], > 100 µM (inactive). Further, the GI50 in [12] and in assay [13] was > 100 µM (inactive) each time.

As to `NC(CSSCC(N)Cc1ccccc1)Cc1ccccc1` (centres undefined), the GI50 is 15.7 µM (inactive) in assay [1]; > 100 µM (inactive) in assay [2]; 35.3 µM (inactive) in assay [3]; 30.2 µM (inactive) in assay [4]; 32.9 µM (inactive) in assay [5]; 40.8 µM (inactive) in assay [6]. In addition, the GI50 in assay [7] was 66.7 µM; in assay [8] it was > 100 µM (inactive); in assay [15] it was 23.1 µM (inactive); in assay [9], 76.4 µM (inactive); in assay [10], 43.4 µM (inactive); in assay [11], 47.8 µM (inactive). The GI50 in [12] was 51.3 µM (inactive); in assay [13], 47.5 µM (inactive).

Consider `COCN1COCN(C)C1=O`, for which the GI50 in assay [2], in assay [3], in assay [4], in assay [14], in assay [5] and in [6] was > 100 µM (inactive) throughout. Also, the GI50 in assay [7] was over 100 µM; in [8], > 100 µM (inactive); in assay [15], > 100 µM (inactive); in assay [9], > 100 µM (inactive); in assay [10], > 100 µM (inactive); in [11], > 100 µM (inactive). The GI50 in [12] and in [13] was > 100 µM (inactive) throughout.

`C[C@@H](NC1CCC[C@@H]1O)c1ccccc1` (some centres undefined): the GI50 in [2], in assay [3], in assay [4], in assay [14], in assay [5] and in assay [6] was > 100 µM (inactive) each time. Further, the GI50 was over 100 µM in assay [7]; > 100 µM (inactive) in [8]; > 100 µM (inactive) in assay [15]; > 100 µM (inactive) in assay [9]; > 100 µM (inactive) in [10]; > 100 µM (inactive) in assay [16]. The GI50 in assay [11], in assay [12] and in [13] was > 100 µM (inactive) in each case.

As for `CCOC(=O)Nc1ccc(S(=O)(=O)OC)cc1.CCOC(=O)Nc1ccc(S(=O)(=O)OC)cc1.Nc1ncnc2c1ncn2C1OC(CO)C(O)C1O` (centres undefined), the GI50 in [2] is > 100 µM (inactive); in assay [3] it was 21.6 µM (inactive); in assay [4], 99.8 µM (inactive); in [14], > 100 µM (inactive); in [5], 21.5 µM (inactive); in [6] it was > 100 µM (inactive). Further, the GI50 in assay [7] was 34.2 µM; in assay [8] it was > 100 µM (inactive); in assay [15], > 100 µM (inactive); in [9], > 100 µM (inactive); in assay [10] it was > 100 µM (inactive); in assay [11], 39.6 µM (inactive). In addition, the GI50 in assay [12] and in [13] was > 100 µM (inactive) each time.

As to `Cc1cn(C2CC(N(O)Cc3ccccc3)C(CO)O2)c(=O)[nH]c1=O` (centres undefined), the GI50 was > 100 µM (inactive) in assay [2]; > 100 µM (inactive) in assay [3]; > 100 µM (inactive) in assay [4]; 5.24 µM (inactive) in assay [5]; > 100 µM (inactive) in assay [6]; over 100 µM in assay [7]. For the same compound, the GI50 in [8], in assay [15], in [9], in [10], in assay [16] and in assay [11] was > 100 µM (inactive) in each case. The GI50 in assay [12] and in [13] was > 100 µM (inactive) each time.

`O=C(/C(=C\c1ccc(Cl)cc1)c1ccccc1)c1ccccc1`: the GI50 is 31.6 µM (inactive) in [1]; > 100 µM (inactive) in [2]; 38.2 µM (inactive) in assay [3]; 22 µM (inactive) in [4]; 79.8 µM (inactive) in assay [5]; 53.8 µM (inactive) in assay [6]. Further, the GI50 in assay [7] was 90.4 µM; in assay [15], > 100 µM (inactive); in assay [9], 38.8 µM (inactive); in assay [10], > 100 µM (inactive); in assay [11], 42.5 µM (inactive); in [12], > 100 µM (inactive). Further, the GI50 in assay [13] was 39.3 µM (inactive).

`O=C1CC(c2c[nH]c3ccccc23)C(=O)N1` (centres undefined): the GI50 in assay [2], in [3], in assay [4], in [14], in [5] and in assay [6] was > 100 µM (inactive) throughout. In addition, the GI50 was over 100 µM in [7]; > 100 µM (inactive) in [15]; > 100 µM (inactive) in [9]; > 100 µM (inactive) in assay [10]; > 100 µM (inactive) in assay [16]; > 100 µM (inactive) in assay [11]. Besides, the GI50 in assay [12] and in [13] was > 100 µM (inactive) each time.
